In US6924302B2, “Substituted triazole diamine derivatives as kinase inhibitors” (Ortho McNeil Pharmaceutical, Inc., priority 2000, dated 2005):

How the values were obtained:
CDK1:Cyclin-B = target: T1, CDK1:Cyclin-B (Homo sapiens, UniProt P06493); test: CDK1 Screening Assay; format: biochemical; conditions: Table 1; read-out: CDK1 IC50
T1 construct: purchased New England Biolabs 6020; host or cells: insect cells
Experimental: (§1) 70 μL of the kinase reaction mixture was dispensed into the well of a streptavidin coated FlashPlate™ (Cat. # SMP103, NEN, Boston, Mass.). Then 1 μL of test compound stock in 100% DMSO was added to the wells resulting in a final concentration of 1% DMSO in the reaction with a 100 μl final reaction volume. Next, CDK1:Cyclin-B protein was diluted in 50 mM Tris-HCl pH=8.0, 0.1% BSA at a concentration of 1 ng per μL and 30 μl (30 ng enzyme per test well) was added to each well to initiate the reaction. The reaction was incubated for one hour at 30° C. At the end of the 1-hour incubation, the reaction was terminated by aspirating the reaction mixture from the plate and washing the wells twice with PBS containing 100 mM EDTA. The histone-H1 biotinylated peptide substrate became immobilized on the Flashplate™ and the incorporation of ^33P-γ-ATP was measured by reading the plate on a scintillation counter. Inhibition of the enzymatic activity of CDK1 was measured by observing a reduced amount of ^33P-γ-ATP incorporated into the immobilized peptide.
Assays to test compound inhibition of other kinases were preformed using methods that measure the amount of phosphorylation of a biotinylated peptide substrate. Biotinylated peptide substrates were selected from the literature as appropriate for the enzyme being evaluated. […] Assay conditions vary slightly for each protein kinase, for example, insulin receptor kinase requires 10 mM MnCl2 for activity and Calmodulin-dependent protein kinase requires calmodulin and 10 mM CaCl2. These assay conditions are known in the art. The reaction mixture was dispensed into the wells of a streptavidin coated Flashplate and 1 μl drug stock in 100% DMSO was added to a 100 μl reaction volume resulting in a final concentration of 1% DMSO on the reaction. Enzyme was diluted in 50 mM Tris-HCl pH=8.0, 0.1% BSA and add to each well. The reaction was incubated for one hour at 30° C. in the presence of compound. After one hour the reaction mix was aspirated from the plate and the plate was washed with PBS containing 100 mM EDTA. The plate was read on a scintillation counter to determine ^33P-γ-ATP incorporated into the immobilized peptide. Test compounds were assayed in duplicate at 8 concentrations [100 uM, 10 uM, 1 uM, 100 nM, 10 nM, 1 nM, 100 pM, 10 pM]. A maximum and minimum signal for the assay was determined on each plate. The IC50 was calculated from the dose response curve of the percent inhibition of the maximum signal in the assay according to the formula [max signal—background/test compound signal—background (100)=% inhibition] by graphing the percent inhibition against the log concentration of test compound. Known inhibitor compounds appropriate for the kinase being assayed were also included on each plate. […]

[1] = target: T2, VEGF-R (vascular endothelial growth factor receptor-2) (Rattus norvegicus, UniProt O08775); test: VEGF-R Screening Assay; format: biochemical; conditions: Table 1; read-out: VEGF-R IC50
T2 construct: polyhistidine (6xHIS) (N)
Experimental: as §1, with “a 100 μL final reaction” for “a 100 μl final reaction”, “volume. Next, soluble rat tyrosine kinase containing an N-terminal 6×HIS tag was diluted” for “volume. Next, CDK1:Cyclin-B protein was diluted”, “concentration of 5 ng per” for “concentration of 1 ng per”, “and 30 μL (150 ng enzyme” for “and 30 μl (30 ng enzyme”, “EDTA. The PLC1 biotinylated peptide” for “EDTA. The histone-H1 biotinylated peptide”, “activity of the VEGF-R was measured” for “activity of CDK1 was measured”
Assays to test compound inhibition of other kinases were preformed using methods that measure the amount of phosphorylation of a biotinylated peptide substrate. Biotinylated peptide substrates were selected from the literature as appropriate for the enzyme being evaluated. […] Assay conditions vary slightly for each protein kinase, for example, insulin receptor kinase requires 10 mM MnCl2 for activity and Calmodulin-dependent protein kinase requires calmodulin and 10 mM CaCl2. These assay conditions are known in the art. The reaction mixture was dispensed into the wells of a streptavidin coated Flashplate and 1 μl drug stock in 100% DMSO was added to a 100 μl reaction volume resulting in a final concentration of 1% DMSO on the reaction. Enzyme was diluted in 50 mM Tris-HCl pH=8.0, 0.1% BSA and add to each well. The reaction was incubated for one hour at 30° C. in the presence of compound. After one hour the reaction mix was aspirated from the plate and the plate was washed with PBS containing 100 mM EDTA. The plate was read on a scintillation counter to determine ^33P-γ-ATP incorporated into the immobilized peptide. Test compounds were assayed in duplicate at 8 concentrations [100 uM, 10 uM, 1 uM, 100 nM, 10 nM, 1 nM, 100 pM, 10 pM]. A maximum and minimum signal for the assay was determined on each plate. The IC50 was calculated from the dose response curve of the percent inhibition of the maximum signal in the assay according to the formula [max signal—background/test compound signal—background (100)=% inhibition] by graphing the percent inhibition against the log concentration of test compound. Known inhibitor compounds appropriate for the kinase being assayed were also included on each plate.
CDK2 in complex with cyclin A is commercially available (Upstate Biotech, Lake Placid, N.Y.). The CDK4 complex was composed of a mouse CDK4 protein and a mouse Cyclin D1 protein (The mouse CDK4 protein was genetically fused to an N-terminal Flag-epitope tag and the mouse Cyclin D1 protein was fused with an N-terminal AU-1 epitope tag. The genes encoding these proteins were transferred to commercially available baculoviral vectors. The recombinant CDK4/D1 complex was then made by co-infecting commercially available insect cells with viruses carrying these two constructs). […] ERK-1 protein (Discontinued from Calbiochem). EGFR (epidermal growth factor receptor) is purified from human A431 cell membranes (Sigma, St. Louis, Mo., Cat.# E3641).

T1 sequence (P06493 whole entry): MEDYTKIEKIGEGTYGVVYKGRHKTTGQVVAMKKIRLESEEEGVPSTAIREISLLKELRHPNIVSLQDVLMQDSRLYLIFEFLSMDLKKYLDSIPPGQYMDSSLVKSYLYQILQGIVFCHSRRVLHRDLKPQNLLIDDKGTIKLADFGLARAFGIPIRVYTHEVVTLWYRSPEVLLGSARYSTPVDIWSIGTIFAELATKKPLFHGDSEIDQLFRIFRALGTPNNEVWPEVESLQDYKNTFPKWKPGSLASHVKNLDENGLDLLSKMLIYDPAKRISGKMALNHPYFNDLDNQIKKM
T1 sequence (P14635 whole entry partner): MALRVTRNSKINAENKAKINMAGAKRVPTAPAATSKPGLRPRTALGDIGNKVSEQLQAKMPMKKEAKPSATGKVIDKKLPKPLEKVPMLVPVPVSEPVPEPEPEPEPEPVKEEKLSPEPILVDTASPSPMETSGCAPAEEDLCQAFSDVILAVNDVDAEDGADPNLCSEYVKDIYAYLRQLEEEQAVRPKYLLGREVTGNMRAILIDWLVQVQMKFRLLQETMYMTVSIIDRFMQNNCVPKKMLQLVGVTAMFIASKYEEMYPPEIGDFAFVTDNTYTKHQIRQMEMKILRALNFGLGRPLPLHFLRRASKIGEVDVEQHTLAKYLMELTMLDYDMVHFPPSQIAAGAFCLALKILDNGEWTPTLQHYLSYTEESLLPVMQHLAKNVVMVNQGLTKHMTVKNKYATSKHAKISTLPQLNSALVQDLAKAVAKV
T2 sequence (O08775 786-1343): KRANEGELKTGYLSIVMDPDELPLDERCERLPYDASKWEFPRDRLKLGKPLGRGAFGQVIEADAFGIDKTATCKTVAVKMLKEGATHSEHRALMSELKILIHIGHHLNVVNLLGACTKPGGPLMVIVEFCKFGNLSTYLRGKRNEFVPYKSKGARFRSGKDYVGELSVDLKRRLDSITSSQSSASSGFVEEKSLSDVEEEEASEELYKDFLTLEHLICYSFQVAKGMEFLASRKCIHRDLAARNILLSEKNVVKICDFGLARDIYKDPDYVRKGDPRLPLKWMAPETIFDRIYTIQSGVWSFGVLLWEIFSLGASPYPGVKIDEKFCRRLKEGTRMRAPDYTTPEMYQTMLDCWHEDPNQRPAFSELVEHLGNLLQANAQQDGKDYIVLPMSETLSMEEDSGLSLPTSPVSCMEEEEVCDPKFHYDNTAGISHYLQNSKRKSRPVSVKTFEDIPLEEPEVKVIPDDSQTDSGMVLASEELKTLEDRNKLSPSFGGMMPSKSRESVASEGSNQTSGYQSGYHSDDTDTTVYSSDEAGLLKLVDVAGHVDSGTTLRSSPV

Row | Structure (SMILES) | IC50 (CDK1:Cyclin-B) | IC50 [1]
1 | Nc1nc(Nc2ccc(S(=O)(=O)N3CCCCC3)cc2)nn1C(=O)c1c(F)cccc1F [Cpd 13, 1-(2,6-difluorobenzoyl)-N^3-[4-(1-piperidinylsulfonyl)phenyl]-1H-1,2,4-triazole-3,5-diamine] | 535 nM | 532 nM
2 | Nc1nc(Nc2ccc(S(N)(=O)=O)cc2)nn1S(=O)(=O)c1c(F)cccc1F [Cpd 68, 4-[[5-amino-1-[(2,6-difluorophenyl)sulfonyl]-1H-1,2,4-triazol-3-yl]amino]-benzenesulfonamide] | 660 nM | 5140 nM
3 | CCOc1ccsc1C(=O)n1nc(Nc2ccc(S(N)(=O)=O)cc2)nc1N [Cpd 18, 4-[[5-amino-1-[(3-ethoxy-2-thienyl)carbonyl]-1H-1,2,4-triazol-3-yl]amino]-benzenesulfonamide] | 67 nM | 58 nM
4 | Nc1nc(Nc2ccc(S(N)(=O)=O)cc2)nn1C(=O)c1ccccn1 [Cpd 27, 4-[[5-amino-1-(2-pyridinylcarbonyl)-1H-1,2,4-triazol-3-yl]amino]-benzenesulfonamide] | ~100000 nM | > 100000 nM
5 | Nc1nc(Nc2ccc(S(N)(=O)=O)cc2)nn1C(=O)c1csnn1 [Cpd 37, 4-[[5-amino-1-(1,2,3-thiadiazol-4-ylcarbonyl)-1H-1,2,4-triazol-3-yl]amino]-benzenesulfonamide] | 10500 nM | 55000 nM
6 | CC1CCCCC1C(=O)n1nc(Nc2ccc(S(N)(=O)=O)cc2)nc1N (centres unmarked) [Cpd 47, 4-[[5-amino-1-[(2-methylcyclohexyl)carbonyl]-1H-1,2,4-triazol-3-yl]amino]-benzenesulfonamide] | 58.6 nM | 2520 nM
7 | Nc1nc(Nc2ccc(S(N)(=O)=O)cc2)nn1C(=O)Cc1cccs1 [Cpd 40, 4-[[5-amino-1-(2-thienylacetyl)-1H-1,2,4-triazol-3-yl]amino]-benzenesulfonamide] | 195 nM | 11100 nM
8 | Nc1nc(Nc2ccc(S(N)(=O)=O)cc2)nn1C(=O)c1c(Cl)cccc1Cl [Cpd 7, 4-[[5-amino-1-(2,6-dichlorobenzoyl)-1H-1,2,4-triazol-3-yl]amino]-benzenesulfonamide] | 57 nM | > 10000 nM
9 | CCCCC1CCC(C(=O)n2nc(Nc3ccc(S(N)(=O)=O)cc3)nc2N)CC1 (centres unmarked) [Cpd 48, 4-[[5-amino-1-[(4-butylcyclohexyl)carbonyl]-1H-1,2,4-triazol-3-yl]amino]-benzenesulfonamide] | 2600 nM | ~100000 nM
10 | Nc1nc(Nc2ccc(S(N)(=O)=O)cc2)nn1C(=O)Cc1c(F)cccc1F [Cpd 43, 4-[[5-amino-1-[(2,6-difluorophenyl)acetyl]-1H-1,2,4-triazol-3-yl]amino]-benzenesulfonamide] | 87.3 nM | 628 nM
11 | Nc1nc(Nc2ccc(S(N)(=O)=O)cc2)nn1C(=O)c1c(F)cccc1C(F)(F)F [Cpd 6, 4-[[5-amino-1-[2-fluoro-6-(trifluoromethyl)benzoyl]-1H-1,2,4-triazol-3-yl]amino]-benzenesulfonamide] | 39.4 nM | 8140 nM
12 | Nc1nc(Nc2ccc(S(N)(=O)=O)cc2)nn1C(=O)/C=C/c1cccs1 [Cpd 42, 4-[[5-amino-1-[(2E)-1-oxo-3-(2-thienyl)-2-propenyl]-1H-1,2,4-triazol-3-yl]amino]-benzenesulfonamide] | 134 nM | 443 nM
13 | Cc1cc(C)c(C(=O)n2nc(Nc3ccc(S(N)(=O)=O)cc3)nc2N)c(C)c1 [Cpd 11, 4-[[5-amino-1-(2,4,6-trimethylbenzoyl)-1H-1,2,4-triazol-3-yl]amino]-benzenesulfonamide] | 305 nM | > 100000 nM
14 | COc1cccc(OC)c1C(=O)n1nc(Nc2ccc(S(N)(=O)=O)cc2)nc1N [Cpd 10, 4-[[5-amino-1-(2,6-dimethoxybenzoyl)-1H-1,2,4-triazol-3-yl]amino]-benzenesulfonamide] | 252 nM | 491 nM
15 | Nc1nc(Nc2ccc(S(N)(=O)=O)cc2)nn1C(=O)c1ccncc1 [Cpd 29, 4-[[5-amino-1-(4-pyridinylcarbonyl)-1H-1,2,4-triazol-3-yl]amino]-benzenesulfonamide] | 70400 nM | ~100000 nM

Continued by falling IC50 (CDK1:Cyclin-B), values first:

Row | IC50 (CDK1:Cyclin-B) | IC50 [1] | Structure (SMILES)
16 | 39 nM | 1600 nM | Nc1nc(Nc2ccc(S(N)(=O)=O)cc2)nn1C(=O)c1ccccc1[N+](=O)[O-] [Cpd 9, 4-[[5-amino-1-(2-nitrobenzoyl)-1H-1,2,4-triazol-3-yl]amino]-benzenesulfonamide]
17 | 35.8 nM | 453 nM | CC1CCC(C(=O)n2nc(Nc3ccc(S(N)(=O)=O)cc3)nc2N)CC1 (centres unmarked) [Cpd 46, 4-[[5-amino-1-[(4-methylcyclohexyl)carbonyl]-1H-1,2,4-triazol-3-yl]amino]-benzenesulfonamide]
18 | 33.9 nM | 291 nM | CC(=O)Nc1ccsc1C(=O)n1nc(Nc2ccc(S(N)(=O)=O)cc2)nc1N [Cpd 19, N-[2-[[5-amino-3-[[4-(aminosulfonyl)phenyl]amino]-1H-1,2,4-triazol-1-yl]carbonyl]-3-thienyl]-acetamide]
19 | 31.8 nM | 233 nM | CC(=O)c1ccc(C(=O)n2nc(Nc3ccc(S(N)(=O)=O)cc3)nc2N)s1 [Cpd 22, 4-[[1-[(5-acetyl-2-thienyl)carbonyl]-5-amino-1H-1,2,4-triazol-3-yl]amino]-benzenesulfonamide]
20 | 22.3 nM | 387 nM | Nc1nc(Nc2ccc(S(N)(=O)=O)cc2)nn1C(=O)c1ccccc1F [Cpd 4, 4-[[5-amino-1-(2-fluorobenzoyl)-1H-1,2,4-triazol-3-yl]amino]-benzenesulfonamide]
21 | 13.7 nM | 355 nM | Nc1nc(Nc2ccc(S(N)(=O)=O)cc2)nn1C(=O)C1CCCCCC1 [Cpd 45, 4-[[5-amino-1-(cycloheptylcarbonyl)-1H-1,2,4-triazol-3-yl]amino]-benzenesulfonamide]
22 | 4.4 nM | 31 nM | Cc1ccc(C(=O)n2nc(Nc3ccc(S(N)(=O)=O)cc3)nc2N)s1 [Cpd 20, 4-[[5-amino-1-[(5-methyl-2-thienyl)carbonyl]-1H-1,2,4-triazol-3-yl]amino]-benzenesulfonamide]
